Format in all cases: cell-based
Data set [1] deals with SKOV-3 cells. As to the kind of experiment: Cell cycle progression of SKOV-3 cells (propidium iodide, FACS). Further details: G1 / Apoptosis: unit not given here. Particulars: for G1 / G2/M / S / Apoptosis: SKOV-3 cells, 10 μM; for G1 / G2/M / S: cell population distribution by FACS; for Apoptosis: sub-G1 population by FACS. The procedure:
SKOV-3 cells (˜1 million) were seeded in complete DMEM media in 10 cm^2 dishes and allowed to adhere overnight. Media was removed and supplemented with AMITC and AC-AM (10 μM) or vehicle and cells were harvested at 4, 12, 18, 32, and 48 hours. The cells were washed and fixed with cold 70% ethanol/H2O. After 1 hour, ethanol was removed and 500 μL of propidinium iodide (PI) (1 mg/10 mL) was added to each tube containing cells. The distribution of the cell population in various phases of cell-cycle was analyzed using FACS. 10,000 events were chosen from each sample.
(In general: Flow cytometry measures light scatter and fluorescence of single cells or particles in a stream.)

Data set [2] deals with immortalized TCL-1 trophoblasts. The data set can be described thus: MTS cell viability, immortalized trophoblasts (control cells). As to conditions: drug concentrations of 40 μM. As for the experimental part: Cancer cells derived from neuroblastoma (SMSKCNR), ovarian (SKOV-3), prostate (PC-3), cervical (HeLa), skin (a431), immortalized lung fibroblasts (MRCS) and immortalized trophoblasts (TCL-1) were seeded (5000-10000) in a 96 well plate in complete medium as recommended by ATCC and allowed to adhere overnight. Medium was replaced with fresh complete medium containing various concentrations of compound (2) and (3). The cells were incubated under standard humidified incubator (5% CO2) for 48 hours. The medium was replaced again with 100 μL of complete RPMI medium containing MTS reagent (Cell titre 96 aqueous one solution cell proliferation assay, Promega, Madison, Wis.) and incubated for 1-6 hours until violet farmazon color developed (the optical density (OD) of the color was read with an ELISA plate reader at 492 nm wavelength). The OD values of the treatment wells were plotted against vehicle OD as 100% cell viablity using MS excel software.
Cancer cells derived from neuroblastoma (SMSKCNR), ovarian (SKOV-3), prostate (PC-3), endometrial (ECC-1, AN3CA, KLE), breast (MCF-7) and trophoblasts (TCL-1) were seeded (5000-10000 cells/well) in a 96 well plate in complete medium as recommended by ATCC and allowed to adhere overnight. The medium was replaced with fresh complete medium containing ascorbic acid (500 μM) and added various concentrations of AC-AM. […]

Data set [3] concerns ovarian and endometrial cancer cells. The data set can be described thus: MTS viability with ascorbic acid co-treatment (role of ROS). As for the experimental part:
Cancer cells derived from neuroblastoma (SMSKCNR), ovarian (SKOV-3), prostate (PC-3), endometrial (ECC-1, AN3CA, KLE), breast (MCF-7) and trophoblasts (TCL-1) were seeded (5000-10000 cells/well) in a 96 well plate in complete medium as recommended by ATCC and allowed to adhere overnight. The medium was replaced with fresh complete medium containing ascorbic acid (500 μM) and added various concentrations of AC-AM. The cells were incubated under standard humidified incubator (5% CO2) for 24 hours. The medium was replaced again with 100 μL of complete RPMI medium containing MTS reagent (Cell titre 96 aqueous one solution cell proliferation assay, Promega, Madison, Wis.) and incubated for 1-6 hours until violet farmazon color developed (the optical density of the color was read with an ELISA plate reader at 492 nm wavelength). The OD values of the treatment wells were plotted against vehicle OD set at 100% cell viability using MS excel software.

Molecules are shown by their SMILES.

Turning to `S=C=NCC12CC3CC(CC(C3)C1)C2` [AMITC, adamantyl methyl isothiocyanate], the G1 in data set [1] (4 hr) stood at 63; in data set [1] (12 hr) it was 46.18; in data set [1] (18 hr), 39.19; in data set [1] (32 hr) it was 48; in data set [1] (48 hr) it was 43. Also, the G2/M in data set [1] (4 hr) worked out at 11; in data set [1] (12 hr), 26.06; in data set [1] (18 hr), 29.13; in data set [1] (32 hr), 20.12; in data set [1] (48 hr), 37.44. In addition, the S came out at 25.30 in data set [1] (4 hr); 27.27 in data set [1] (12 hr); 31.32 in data set [1] (18 hr); 31.86 in data set [1] (32 hr); 19.36 in data set [1] (48 hr). Also, the Apoptosis in data set [1] (4 hr) came out at 7.24; in data set [1] (12 hr) it was 8.52; in data set [1] (18 hr), 14.83; in data set [1] (32 hr) it was 16.07; in data set [1] (48 hr), 19.46. Besides, in data set [1] (SKOV-3 ovarian cancer cells), the “effect on cell cycle phases (in words)” value was “arrest ovarian cancer cells in G2/M phase”. In addition, the “viability of immortalized TCL-1 trophoblasts” value in data set [2] was “not significantly affected”.
For `CC(=O)NC(CSC(=S)NCC12CC3CC(CC(C3)C1)C2)C(=O)O` (stereo not shown) [AC-AM], the G1 in data set [1] (4 hr) was 63; in data set [1] (12 hr), 45.15; in data set [1] (18 hr) it was 37.37; in data set [1] (32 hr), 37.78; in data set [1] (48 hr), 48.48. The G2/M in data set [1] (4 hr) was 10.40; in data set [1] (12 hr), 27.17; in data set [1] (18 hr) it was 30.85; in data set [1] (32 hr), 28.89; in data set [1] (48 hr), 17.90. The S in data set [1] (4 hr) was 25.70; in data set [1] (12 hr) it was 27.67; in data set [1] (18 hr), 31.78; in data set [1] (32 hr) it was 33.34; in data set [1] (48 hr) it was 33.62. In addition, the Apoptosis in data set [1] (4 hr) was 4.81; in data set [1] (12 hr) it was 7.73; in data set [1] (18 hr), 13.33; in data set [1] (32 hr), 16.29; in data set [1] (48 hr) it was 16.62. In addition, in data set [3], the “effect of antioxidant ascorbic acid on cytotoxicity” value is given as “blocked”.

For the origin of these results see patent US8772335B2, “Adamantyl derivatives as therapeutic agents” (Women & Infants' Hospital of Rhode Island, priority 2011, dated 2014).
